Experimental data reported in patent US5849736A, “Isoxazoline and isoxazole fibrinogen receptor antagonists” (The DuPont Merck Pharmaceutical Company, priority 1995, dated 1998).
Structures can show the parent of a compound that is named as a salt.

system: platelet aggregation in human platelet rich plasma (PRP); test: Platelet Aggregation Assay (platelet rich plasma, with or without esterase pretreatment); assay type: cell-based; conditions: Platelet, preincubated with 100 IU/mL porcine liver esterase 2 hours at 37° C., 100 μM ADP, read-out: Platelet Aggregation Assay IC50 (with esterase)
Description: Venous blood was obtained from the arm of a healthy human donor who was drug-free and aspirin-free for at least two weeks prior to blood collection. Blood was collected into 10 mL citrated Vacutainer tubes. The blood was centrifuged for 15 minutes at 150×g at room temperature, and platelet-rich plasma (PRP) was removed. The remaining blood was centrifuged for 15 minutes at 1500×g at room temperature, and platelet-poor plasma (PPP) was removed. Samples were assayed on a aggregometer (PAP-4 Platelet Aggregation Profiler), using PPP as the blank (100% transmittance). 200 μL of PRP was added to each micro test tube, and transmittance was set to 0%. 20 μL of various agonists (ADP, collagen, arachidonate, epinephrine, thrombin) were added to each tube, and the aggregation profiles were plotted (% transmittance versus time). The results are expressed as % inhibition of agonist-induced platelet aggregation. For the IC50 evaluation, the test compounds were added at various concentrations prior to the activation of the platelets.
Ester prodrugs were preincubated (10^-3 M F.C.) with 100 IU/mL Porcine liver esterase (Sigma Chemical Co., St. Louis, Mo., #E-3128) for 2 hours at 37° C. Aliquots are then diluted in 0.1M Tris, pH 7.4, to the desired concentrations. Aliquots of 20 μl of the esterase pretreated prodrugs are added to 200 μl of human platelet rich plasma. Samples were placed in platelet profiler (aggregometer) for 8 minutes at 37° C., followed by the addition of 100 μM Adenosine Diphosphate, (Sigma Chemical Co., St. Louis, Mo., #A-6521), to induce platelet aggregation. Platelet aggregation was allowed to proceed for 5 minutes. Percent inhibition is calculated using percent aggregation in the presence of the test compound divided by percent aggregation of control, times 100. This value is subtracted from 100, yielding percent inhibition. Calculation of IC50 is performed on a Texas Instruments TI59 with an IC50 program.
Table A below sets forth the antiplatelet activity of representative compounds of the present invention. The indicated compounds were tested for their ability to inhibit platelet aggregation (using platelet rich plasma (PRP)). The IC50 value (the concentration of antagonist which inhibits platelet aggregation by 50% relative to a control lacking the antagonist) is shown. In Table 5 the IC50 values are expressed as: +++=IC50 of <10 μM; ++=IC50 of 10-50 μM; +=IC50 of 50-100 μM (μM=micromolar).

| Structure (SMILES) | IC50 |
| --- | --- |
| COC(=O)C(CNC(=O)CC1CC(c2ccc(C(=N)N)cc2)=NO1)NS(=O)(=O)c1ccc(C(C)C)cc1 (stereo not drawn) [Example 492] | < 10 µM |
| COC(=O)C(CNC(=O)CC1CC(c2ccc(C(=N)N)cc2)=NO1)NS(=O)(=O)CCCc1ccccc1 (stereo not drawn) [Example 493] | < 10 µM |
| COC(=O)C(CNC(=O)CC1CC(c2ccc(C(=N)N)cc2)=NO1)NS(=O)(=O)c1cccnc1 (stereo not drawn) [Example 494] | < 10 µM |
| COC(=O)C(CNC(=O)CC1CC(c2ccc(C(=N)N)cc2)=NO1)NS(=O)(=O)c1ccccn1 (stereo not drawn) [Example 495] | < 10 µM |
| COC(=O)[C@H](CNC(=O)CC1CC(c2ccc(C(=N)N)cc2)=NO1)NS(=O)(=O)C=C(c1ccccc1)c1ccccc1 (stereo partly drawn) [Example 496, Methyl N^2-(2,2-diphenyl-1-ethenesulfonyl)-N^3-[3-(4-amidinophenyl)isoxazolin-5-(R,S)-ylacetyl]-(S)-2,3-diaminopropionate, trifluoroacetic acid salt] | < 10 µM |
| CCCCNS(=O)(=O)NC(CNC(=O)CC1CC(c2ccc(C(=N)N)cc2)=NO1)C(=O)OC (stereo not drawn) [Example 504] | < 10 µM |
| COC(=O)C(CNC(=O)CC1CC(c2ccc(C(=N)N)cc2)=NO1)NS(=O)(=O)NCC(C)C (stereo not drawn) [Example 505] | < 10 µM |
| COC(=O)C(CNC(=O)CC1CC(c2ccc(C(=N)N)cc2)=NO1)NS(=O)(=O)NC(C)(C)C (stereo not drawn) [Example 506] | < 10 µM |
| COC(=O)C(CNC(=O)CC1CC(c2ccc(C(=N)N)cc2)=NO1)NS(=O)(=O)NC(C)C (stereo not drawn) [Example 507] | < 10 µM |
| COC(=O)C(CNC(=O)CC1CC(c2ccc(C(=N)N)cc2)=NO1)NS(=O)(=O)NC1CCCCC1 (stereo not drawn) [Example 508] | < 10 µM |
| COC(=O)C(CNC(=O)CC1CC(c2ccc(C(=N)N)cc2)=NO1)NS(=O)(=O)Nc1ccccc1 (stereo not drawn) [Example 509] | < 10 µM |
| COC(=O)C(CNC(=O)CC1CC(c2ccc(C(=N)N)cc2)=NO1)NS(=O)(=O)NCc1ccccc1 (stereo not drawn) [Example 510] | < 10 µM |
| COC(=O)[C@H](CNC(=O)CC1CC(c2ccc(C(=N)N)cc2)=NO1)NS(=O)(=O)N(C)C (stereo partly drawn) [Example 511, Methyl N^2-(N,N-dimethylsulfamoyl)-N^3-[3-(4-amidinophenyl)isoxazolin-5-(R,S)-ylacetyl]-(S)-2,3-diaminopropionate, trifluoroacetic acid salt] | < 10 µM |
| COC(=O)[C@H](CNC(=O)CC1CC(c2ccc(C(=N)N)cc2F)=NO1)NS(=O)(=O)c1cccc(C)c1 (stereo partly drawn) [Example 512, Methyl N^2-(m-toluenesulfonyl)-N^3-[3-(4-amidino-2-fluorophenyl)isoxazolin-5-ylacetyl]-S-2,3-diaminopropionate hydrochloric acid salt] | < 10 µM |
| CCCCOC(=O)N[C@@H](CNC(=O)CC1CC(c2ccc(C(=N)N)cn2)=NO1)C(=O)OC (stereo partly drawn) [Example 513, Methyl N^2-(n-butyloxycarbonyl)-N^3-[3-(3-amidinopyrid-6-yl)isoxazolin-5-ylacetyl]-S-2,3-diaminopropionate hydrochloric acid salt] | < 10 µM |
| COC(=O)[C@H](CNC(=O)CC1CC(c2ccc(C(=N)N)cn2)=NO1)NS(=O)(=O)c1cccc(C)c1 (stereo partly drawn) [Example 514, Methyl N^2-(m-toluenesulfonyl)-N^3-3-(3-amidinopyrid-6-yl)isoxazolin-5-ylacetyl]-S-2,3-diaminopropionate hydrochloric acid salt] | < 10 µM |
| CCCCOC(=O)N[C@@H](CNC(=O)CC1CC(c2ccc(C(=N)N)nc2)=NO1)C(=O)OC (stereo partly drawn) [Example 515, Methyl N^2-(n-butyloxycarbonyl)-N^3-[3-(2-amidinopyrid-5-yl)isoxazolin-5-ylacetyl]-S-2,3-diaminopropionate hydrochloric acid salt] | < 10 µM |
| COC(=O)[C@H](CNC(=O)CC1CC(c2ccc(C(=N)N)nc2)=NO1)NS(=O)(=O)c1cccc(C)c1 (stereo partly drawn) [Example 516, Methyl N^2-(m-toluenesulfonyl)-N^3-[3-(2-amidinopyrid-5-yl)isoxazolin-5-ylacetyl]-S-2,3-diaminopropionate hydrochloric acid salt] | < 10 µM |
| COC(=O)C(CNC(=O)CC1CC(c2ccc(C(=N)N)cc2)=NO1)NC(=O)Nc1ccc(F)cc1 (stereo not drawn) [Example 518] | < 10 µM |
| COC(=O)C(CNC(=O)CC1CC(c2ccc(C(=N)N)cc2)=NO1)NC(=O)Nc1cccc2ccccc12 (stereo not drawn) [Example 519] | < 10 µM |

| Structure (SMILES) | IC50 |
| --- | --- |
| COC(=O)C(CNC(=O)CC1CC(c2ccc(C(=N)N)cc2)=NO1)NC(=O)NCc1ccccc1 (stereo not drawn) [Example 520] | < 10 µM |
| CCc1ccc(C(=O)NC(CNC(=O)CC2CC(c3ccc(C(=N)N)cc3)=NO2)C(=O)OC)cc1 (stereo not drawn) [Example 522] | < 10 µM |
| COC(=O)C(CNC(=O)CC1CC(c2ccc(C(=N)N)cc2)=NO1)NC(=O)c1ccc(-c2ccccc2)cc1 (stereo not drawn) [Example 523] | < 10 µM |
| COC(=O)C(CNC(=O)CC1CC(c2ccc(C(=N)N)cc2)=NO1)NC(=O)c1ccc2ccccc2c1 (stereo not drawn) [Example 524] | < 10 µM |
| COC(=O)C(CNC(=O)CC1CC(c2ccc(C(=N)N)cc2)=NO1)NC(=O)OCc1ccccc1Cl (stereo not drawn) [Example 525] | < 10 µM |
| COC(=O)C(CNC(=O)CC1CC(c2ccc(C(=N)N)cc2)=NO1)NC(=O)OCc1ccccc1Br (stereo not drawn) [Example 527] | < 10 µM |
| CCCCCCOC(=O)NC(CNC(=O)CC1CC(c2ccc(C(=N)N)cc2)=NO1)C(=O)OC (stereo not drawn) [Example 529] | < 10 µM |
| COC(=O)C(CNC(=O)CC1CC(c2ccc(C(=N)N)cc2)=NO1)NC(=O)OCC(C)C (stereo not drawn) [Example 531] | < 10 µM |
| COC(=O)C(CNC(=O)CC1CC(c2ccc(C(=N)N)cc2)=NO1)NC(=O)OCCC1CC1 (stereo not drawn) [Example 533] | < 10 µM |
| COC(=O)C(CNC(=O)CC1CC(c2ccc(C(=N)N)cc2)=NO1)NC(=O)OCCC1CCCC1 (stereo not drawn) [Example 535] | < 10 µM |
| COC(=O)C(CNC(=O)CC1CC(c2ccc(C(=N)N)cc2)=NO1)NC(=O)OCCCC(F)(F)F (stereo not drawn) [Example 537] | < 10 µM |
| Cc1ccccc1C(=O)N[C@@H](CNC(=O)CC1CC(c2ccc(C(=N)N)cc2)=NO1)C(=O)O (stereo partly drawn) [Example 540, N^2-methylphenylcarbonyl-N^3-[3-(4-amidinophenyl)isoxazolin-5-(R,S)-ylacetyl]-(S)-2,3-diaminopropionicacid] | < 10 µM |
| COC(=O)C(CNC(=O)CC1CC(c2ccc(C(=N)N)cc2)=NO1)NS(=O)(=O)c1cc(C)c(Cl)cc1C (stereo not drawn) [Example 541] | < 10 µM |
| COC(=O)C(CNC(=O)CC1CC(c2ccc(C(=N)N)cc2)=NO1)NS(=O)(=O)c1cccc(Cl)c1Cl (stereo not drawn) [Example 542] | < 10 µM |
| COC(=O)C(CNC(=O)CC1CC(c2ccc(C(=N)N)cc2)=NO1)NS(=O)(=O)c1ccccc1Br (stereo not drawn) [Example 543] | < 10 µM |
| COC(=O)C(CNC(=O)CC1CC(c2ccc(C(=N)N)cc2)=NO1)NS(=O)(=O)c1cccc(Br)c1 (stereo not drawn) [Example 544] | < 10 µM |
| COC(=O)C(CNC(=O)CC1CC(c2ccc(C(=N)N)cc2)=NO1)NS(=O)(=O)c1ccc(Br)cc1 (stereo not drawn) [Example 545] | < 10 µM |
| COC(=O)C(CNC(=O)CC1CC(c2ccc(C(=N)N)cc2)=NO1)NS(=O)(=O)c1ccc(-c2ccccc2)cc1 (stereo not drawn) [Example 546] | < 10 µM |
| COC(=O)C(CNC(=O)CC1CC(c2ccc(C(=N)N)cc2)=NO1)NS(=O)(=O)c1c(C)nn(C)c1Cl (stereo not drawn) [Example 547] | < 10 µM |
| COC(=O)C(CNC(=O)CC1CC(c2ccc(C(=N)N)cc2)=NO1)NS(=O)(=O)c1sccc1Br (stereo not drawn) [Example 548] | < 10 µM |

same assay, conditions: Platelet, without esterase, read-out: Platelet Aggregation Assay IC50 (without esterase)

| Structure (SMILES) | IC50 |
| --- | --- |
| N=C(N)c1ccc(C2=NOC(CC(=O)NCC(NC(=O)OCc3ccccc3Cl)C(=O)O)C2)cc1 (stereo not drawn) [Example 526] | < 10 µM |
| N=C(N)c1ccc(C2=NOC(CC(=O)NCC(NC(=O)OCc3ccccc3Br)C(=O)O)C2)cc1 (stereo not drawn) [Example 528] | < 10 µM |
| CCCCCCOC(=O)NC(CNC(=O)CC1CC(c2ccc(C(=N)N)cc2)=NO1)C(=O)O (stereo not drawn) [Example 530] | < 10 µM |
| CC(C)COC(=O)NC(CNC(=O)CC1CC(c2ccc(C(=N)N)cc2)=NO1)C(=O)O (stereo not drawn) [Example 532] | < 10 µM |
| N=C(N)c1ccc(C2=NOC(CC(=O)NCC(NC(=O)OCCC3CC3)C(=O)O)C2)cc1 (stereo not drawn) [Example 534] | < 10 µM |
| N=C(N)c1ccc(C2=NOC(CC(=O)NCC(NC(=O)OCCCC(F)(F)F)C(=O)O)C2)cc1 (stereo not drawn) [Example 538] | < 10 µM |

same assay, conditions: preincubated with 100 IU/mL porcine liver esterase 2 hours at 37° C., 100 μM ADP, read-out: Platelet Aggregation Assay IC50 (with esterase)

| Structure (SMILES) | IC50 |
| --- | --- |
| COC(=O)[C@H](CNC(=O)CC1CC(c2ccc(C(=N)N)cc2)=NO1)NC(=O)Nc1ccccc1 (stereo partly drawn) [Example 517] | < 10 µM |
| CCCS(=O)(=O)NC(CNC(=O)CC1CC(c2ccc(C(=N)N)cc2)=NO1)C(=O)OC (stereo not drawn) [Example 539] | < 10 µM |
